Residues, ends and D or L forms follow the SMILES beside them. *: point of attachment. Cbz = O=C(OCc1ccccc1)*
Tested on: flotillin-1
Assay: Flotillin-1 protein level by western blot after chemical inhibition of palmitoylation in triple-negative breast cancer cell lines
Type: cell-based
Settings: MDA-MB-231 and SUM 159 triple-negative breast cancer cell lines
Procedure: MDA-MB-231 and SUM 159 triple-negative breast cancer cell lines were treated with drug vehicle (DMSO), (B, C) global palmitoylation inhibitor (2-BP), or 2-BP+a proteasomal inhibitor (MG-132).
Protein lysates were lysed in a 1% SDS lysis buffer containing 2 mM EDTA and 20 mM Tris-HCl (PH 6.8) for 5 minutes and scraped into 1.5 mL collection tubes. Lysates were sonicated using horn sonification for 3×20 seconds each and allowed to recover on ice in between each sonification. Lysates were centrifuged for 5 minutes at 10,000 rpm at 4° C. and supernatants subjected to protein quantification by BCA assay. Lysates were then diluted to 50 ug, resolubilized in 4×SDS loading buffer (200 mM Tris-HCL, 6.8 PH, 8% SDS, 40% glycerol, 0.4% bromophenol blue) and boiled at 95° C. for 7 minutes. Boiled samples were resolved on a 10% SDS-PAGE gel and transferred to a nitrocellulose membrane. Transferred membranes were blocked for 1 hour in 5% non-fat dairy milk (NFDM). Blocked membranes were washed with 1× tris buffer saline+0.1% tween-20 (TBST) prior to the addition of the diluted primary antibody overnight at 4° C. The following day, membranes were washed thrice with TBST for 5 minutes each prior to the addition of rabbit (1:3000) (Cell Signaling Technologies, #7074) or mouse IgG (1:5000) secondary horse radish peroxidase (HRP) conjugated antibody diluted in 5% NFDM for 1 hour. […]

Structure (SMILES)	flotillin-1 protein levels (global palmitoylation inhibitor vs drug vehicle (DMSO))	flotillin-1 protein levels upon proteasomal inhibition (2-BP + proteasomal inhibitor (MG-132) vs 2-BP alone)
CCCCCCCCCCCCCCC(Br)C(=O)O (centres unmarked) [2-BP, 2-bromopalmitate]	significantly reduces flotillin-1 protein levels	–
CC(C)C[C@@H](C=O)NC(=O)[C@H](CC(C)C)NC(=O)[C@H](CC(C)C)NC(=O)OCc1ccccc1 [MG-132] (Cbz-Leu-Leu-Leu-aldehyde)	–	restored

Reference: US20250381245A1, “METHODS AND COMPOSITIONS OF TREATING CANCER BY MODULATING PALMITOYLATION OF FLOTILLIN-1” (BOARD OF REGENTS, THE UNIVERSITY OF TEXAS SYSTEM, priority 2022, published 2025)
